# According to patent publication US9968557B1, “Method of preparing modified multilayered microstructures with enhanced oral bioavailability” (Florida A&M University, priority 2011, dated 2018):
# Experiments:
# [1] = Partition co-efficient in an octanol-water system; format: physicochemical; conditions: octanol-water 1:1
# Description: (§1) Solubility measurements were assayed by HPLC. Five milligrams of DIM-C-pPhC6H5 (“DIM-P”) was suspended in 1 ml of different buffers having pH 2.0, 4.0, 5.0, 6.0, 7.0 and 8.0 in a centrifuge tubes. The tubes were placed at 37±0.1° C. and kept for shaking at 1500 rpm for 24 hours. The suspensions were centrifuged, and supernatant were filtered using 0.1 μm filters prior to HPLC analysis. Partition co-efficient of DIM-P was measured in an octanol-water system. Octanol and water were mixed in 1:1 concentration and 3 mg of DIM-P was added to 2 mL of mixture followed by vigorous shaking for 5 minutes. The mixture was separated by centrifugation and samples were collected and filtered through 0.1 μm filters prior to HPLC analysis.
# [2] = Solubility of DIM-P in buffers of different pH, assayed by HPLC; format: physicochemical
# Description: as §1
structure (smiles),measurement,setting,value
"c1ccc(-c2ccc(C(c3c[nH]c4ccccc34)c3c[nH]c4ccccc34)cc2)cc1 [DIM-P, DIM-C-pPhC6H5]",log p value,[1],6.97±0.12
same,solubility,[2]; at any pH,less than 1 μg/mL
same,solubility,"[2]; pH 2.0, 37°C, 24 hours shaking",0.18 ± 0.003 µg/mL
same,Maximum solubility,"[2]; pH 8.0, 37°C, 24 hours shaking",0.73 ± 0.09 µg/mL
same,sequence of solubility,[2]; rank order by pH,pH 8.0>6.0>4.0>2.0
